Experimental findings from patent publication US20260053778A1, “USE OF NOVEL PPAR ACTIVITY MODULATOR FOR PREVENTION, AMELIORATION OR TREATMENT OF DEGENERATIVE BRAIN DISEASES” (POSTECH RESEARCH AND BUSINESS DEVELOPMENT FOUNDATION, priority 2022, published 2026) are described below.

One test has as its system 5×FAD mice. Description: Western blot and qPCR of APP and β-/γ-secretase in brain tissue. As to conditions: DTMB 10 mg/kg orally. Type of test: in vivo, mouse. The method, then:
Aβ peptides are generated from amyloid precursor protein (APP) by the action of β- and γ-secretase. It is possible that DTMB acts on APP processing to inhibit the formation of Aβ aggregates. To investigate this possibility, the protein levels of total APP and components of β- and γ-secretase were measured in the hippocampus and cortex using western blot and qPCR.
To investigate the soluble and insoluble Aβ components, two extraction steps were performed. Left hemisphere samples were homogenized at a concentration of 100 mg/mL in cold Tris-buffered saline (TBS consisting of 50 mM Tris-pH 7.5 and 150 mM NaCl) with a protease inhibitor cocktail (Thermo Fisher Scientific, Waltham, MO, USA). After centrifugation at 15,000 rpm for 1 hour at 4° C., the supernatant of the sample was used for western blotting. Insoluble proteins were extracted from the pellet by dissolving in 5 M guanidine buffer (5 M guanidine HCl and 150 mM NaCl-pH 7.5). Soluble and insoluble protein samples were stored at −80° C.
Western blot analysis was performed in the same manner as in Example 2-4 using primary antibodies against nicastrin, pen2 (Cell Signaling Technology, Danvers, MA, USA), Aph1 (Invitrogen), amyloid C-terminal fragment (Santa Cruz Biotechnology, Dallas, TX, USA), and GAPDH (Bethyl Laboratories, Mongomery, TX, USA). Secondary antibodies from rabbit (Promega), rat, and goat (Bethyl Laboratories) were used, and detection was performed using SUPEX ECL reagent (Neuronex, Korea) and ImageQuant LAS-4000 (GE Healthcare, MA, USA) according to the manufacturer's instructions. Integrated blot densities were quantified using ImageJ.

Test [1] deals with 5×FAD Alzheimer's dementia-induced mice. The experiment in a line: Y maze test in 5×FAD mice. Type of test: in vivo, mouse. To be noted: DTMB 10 mg/kg orally, 12 weeks. How it is done:
5×FAD (Tg6799) mice were purchased from Jackson Laboratory (Bar Harbor, ME, USA), and male transgenic mice were mated with B6/SJL hybrid female mice. Genotyping was performed by PCR analysis of tail-cut samples. In this example, 8-week-old female mice were used for drug administration, and wild-type littermates were used as controls. All procedures related to animal behavior experiments were approved by the Institutional Animal Care and Use Committee of Pohang University of Science and Technology (POSTECH IACUC). All animal experiments were performed in accordance with the principles of the Animal Welfare Act, the PHS Animal Welfare Policy, and the NIH Guide for the Care and Use of Laboratory Animals. All mice were maintained under general conditions in the POSTECH animal facility according to institutional guidelines.
To evaluate the effect of DTMB on 5×FAD mice, DTMB (10 mg/kg) and vehicle (1% carboxymethylcellulose and 10% DMSO) were orally administered to four groups (wild type, wild type+DTMB, 5×FAD, and 5×FAD+DTMB) 6 days per week for 3 months.
The measuring device consists of three branches, each of which is 42 cm long, 3 cm wide, and 12 cm high, and the angle at which the three branches folded is 120°. […] Alternation behavior is defined as entering all three branches without overlapping and was calculated using the following mathematical formula.

SMILES strings stand for the structures.

For `COc1ccc(-c2cc(=O)oc3c(C)c(OC(=O)[C@H](Cc4c[nH]c5ccccc45)NC(=O)OC(C)(C)C)ccc23)cc1` [DTMB, [4-(4-Methoxyphenyl)-8-methyl-2-oxochromen-7-yl](2S)-3-(1H-indol-3-yl)-2-[(2-methylpropan-2-yl)oxycarbonylamino]propanoate], the “Protein level of β-secretase” value in the test on 5×FAD mice (cortex) is on record as “slightly decreased”. In the test on 5×FAD mice (hippocampus), the “APP protein and mRNA levels” value is reported as “no changes”; the “Protein levels of β- and γ-secretase” value is listed as “no changes”. Further, in test [1], the “Alternation behavior (Y maze)” value is listed as “increased statistically significantly”.
